This is an account of results in patent publication US6667040B2, “Bovine footrot treatment and prevention” (University Technologies International, Inc., priority 1997, dated 2003).

Assay type in all cases: cell-based
Experiment [1] concerns Prevotella intermedia (8-2). The experiment is described as follows: Penicillin G disc diffusion susceptibility test. The following applies: with regrowth. In general terms: In agar diffusion tests the substance spreads into inoculated agar from a disc or well.
Experiment [2] relates to Bacteroides fragilis (7-6). The experiment can be described thus: Penicillin G disc diffusion susceptibility test.
For experiment [3], the system named is Prevotella intermedia (14-7). The experiment is described as follows: Penicillin G disc diffusion susceptibility test.
The subject of experiment [4] is Isolates of Porphyromonas levii. The experiment is described as follows: Penicillin G susceptibility of Porphyromonas levii isolates.
The test system of experiment [5] is Prevotella intermedia (5-2). The experiment can be described thus: Penicillin G disc diffusion susceptibility test. The following applies: with regrowth.
The mark [6] stands for this setting: disc with 10 units penicillin G.

Molecules are shown by their SMILES.

On to `CC1(C)S[C@@H]2[C@H](NC(=O)Cc3ccccc3)C(=O)N2[C@H]1C(=O)O` [penicillin G], for which the “P2 zone of inhibition” value is 27 mm in experiment [1] (disc with 2 units penicillin G), 0 mm in experiment [2] (disc with 2 units penicillin G), 34 (with mm in experiment [3] (disc with 2 units penicillin G) and 22 mm in experiment [5] (disc with 2 units penicillin G). Further, the “P10 zone of inhibition” value in experiment [1] (setting [6]) is 35 (with regrowth) mm; in experiment [2] (setting [6]), 0 mm; in experiment [3] (setting [6]) it was 38 mm; in experiment [5] (setting [6]) it was 28 (with regrowth) mm. The “susceptibility to penicillin” value in experiment [2] (disc diffusion) is reported as “clearly resistant”. Moreover, the “regrowth within P2 zone of inhibition” value in experiment [3] (disc with 2 units penicillin G, regrowth around the disc) is listed as 22 mm regrowth). Further, in experiment [3] (disc with 10 units penicillin G, regrowth around the disc), the “regrowth within P10 zone of inhibition” value was 23 mm. Further, in experiment [4], the “susceptibility to penicillin G” value is “sensitive”.
